Values belong to the molecule of their own block, whether it stands above or below them.
Experiments:
[1] = target: T1, ERβ (Homo sapiens, UniProt Q92731); settings: Example 2
[2] = target: T1, ERβ; experiment: TNF-RE tkLuc repression in U2OS cells with ERβ; assay type: cell-based; set-up: expressed in transfected cells
[3] = test system: TNF-RE tkLuc; experiment: Effect of antiestrogens on TNF-RE tkLuc (Example 2); assay type: cell-based, human; settings: in contrast to E2
[4] = target: T1, ERβ; experiment: ERE-tk-Luc luciferase assay in U2OS cells with ERβ; assay type: cell-based; set-up: expressed in transfected cells; host or cells: U2OS (human osteosarcoma); settings: competition with the extract
[5] = test system: primary invasive breast cancer; settings: women at high risk for breast cancer; cited from earlier work
[6] = test system: estrogen receptor-positive breast cancer; settings: five years of therapy; cited from earlier work

T1 sequence (Q92731 whole entry): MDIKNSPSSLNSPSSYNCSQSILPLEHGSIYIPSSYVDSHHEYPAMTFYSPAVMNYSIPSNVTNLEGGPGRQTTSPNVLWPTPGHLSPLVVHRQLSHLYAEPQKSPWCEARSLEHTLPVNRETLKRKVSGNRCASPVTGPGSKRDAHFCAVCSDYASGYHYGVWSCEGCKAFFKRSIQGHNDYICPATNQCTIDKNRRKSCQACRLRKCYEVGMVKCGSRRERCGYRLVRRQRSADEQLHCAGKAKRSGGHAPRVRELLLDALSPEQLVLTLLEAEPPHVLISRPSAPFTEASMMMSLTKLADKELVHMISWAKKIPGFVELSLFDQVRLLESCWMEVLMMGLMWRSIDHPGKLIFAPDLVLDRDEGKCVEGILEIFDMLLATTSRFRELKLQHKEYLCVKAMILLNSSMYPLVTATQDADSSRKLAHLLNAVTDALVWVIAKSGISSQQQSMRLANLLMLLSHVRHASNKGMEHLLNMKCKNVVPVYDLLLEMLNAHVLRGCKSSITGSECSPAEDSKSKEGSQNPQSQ

repression of TNF-α activation of TNF-RE tkLuc with ERβ [1]: 60-80%
repression of TNF-α activation of TNF-RE with ERβ [2]: 100%
Compound: C[C@]12CC[C@@H]3c4ccc(O)cc4CC[C@H]3[C@@H]1CC[C@@H]2O [E2, estradiol]

Compound: C[C@]12CC[C@@H]3c4ccc(O)cc4C[C@@H](CCCCCCCCC[S+]([O-])CCCC(F)(F)C(F)(F)F)[C@H]3[C@@H]1CC[C@@H]2O (stereo partly drawn) [ICI 182, 780]
activation of TNF-RE tkLuc [3]: 2 fold

effect of SERM antagonist on extract-stimulated ERE with ERβ (FIG. 6) [4]: inhibited
Compound: O=C(c1ccc(OCCN2CCCCC2)cc1)c1c(-c2ccc(O)cc2)sc2cc(O)ccc12 [raloxifene]
activation of TNF-RE tkLuc [3]: 2 fold

Compound: CC/C(=C(\c1ccccc1)c1ccc(OCCN(C)C)cc1)c1ccccc1 [tamoxifen]
reduction of risk of primary invasive breast cancer [5]: 49%
activation of TNF-RE tkLuc [3]: 2 fold
reduction of mortality from breast cancer [6]: 22%
reduction of risk of recurrences [6]: 42%
